Measured values reported in US5183893A, “1-azabicycloalkane derivatives, their preparation process and their use as medicaments” (Roussel Uclaf, priority 1988, dated 1993).
Structures can show the parent of a compound that is named as a salt. Where two headings read alike, the source gives them in different places.

Legend:
[1] = system: isolated ileum of a guinea-pig; test: Test on the isolated ileum of a guinea-pig (agonist activity); format: cell-based; settings: Cavia porcellus, read-out: pD2 (negative logarithm of the dose which produces 50% of the maximum effect) (converted)
Procedure: Pieces of ileum are removed from guinea-pigs which have been killed by decapitation. The isolated ileum is placed in 10 cm^3 of Tyrode's solution at 37° C. and aerated by a mixture of oxygen (95%) and carbon dioxide (5%). The contractions due to the products are recorded using a sensor connected to a polygraph. The products being tested are added, in concentrations comprised between 1.10^-3 M and 1.10^-8 M/1.
The products presenting a contracting effect are tested vis-a-vis atropine and hexamethonium to establish if the activity is of "muscarinic" or "nicotinic" type.
The agonist activity is expressed in pD2 (negative logarithm of the dose which produces 50% of the maximum effect).

Diarrheic activity = test: Diarrheic activity; parameters: species or system mice; settings: mouse, in vivo
Procedure: The test is carried out on male mice (CD1 Charles Rivers) weighing 25 to 30 g, and without food for 6 hours. The product, dissolved at 5% in methocel, is administered by oral route, using an oesophagus probe.
Control animals receive only the excipient (20 ml/kg).
After treatment, the animals are put separately into cages, the bottom of which is covered with absorbent paper, and are observed for 30, 60, 120 and 180 minutes.
The absorbent sheets of paper are changed after each observation.
The consistency of the faeces is evaluated according to the Randall and Baruth method (Arch. Int. Pharmacodyn., 220, 94, 1976) in accordance with the following scale of values.
1: slightly soft faeces with or without a damp ring,
2: slightly soft faeces with presence of a well-defined damp ring,
3: soft faeces with presence of a large damp ring,
4: faeces without consistency with presence of a very large camp ring.
For each product, the dose has been noted which cause diarrohea in 50% of the animals according to the Miller and Tainter method (Proc. Soc. Exp. Biol. Med., 57, 261, 1944).

[2] = Acute toxicity (mortality during 7 days, oral); settings: mouse, in vivo, male CD1 mice, fasted 16 hours, mortality noted during 7 days
Procedure: The test is carried out on male mice (CD1 Charles Rivers) weighing 22 to 24 g, which have gone without food for 16 hours. The products are administered by oral route at a dose of 1000, 500, 250, 125, 62, 31 and 16 mg/kg. The mortality is noted during the 7 days following the treatment.

[3] = system: male mice (CD1 Charles Rivers); test: Hypothermic activity; format: in vivo; settings: for ED (-1 C body temperature): Mus musculus, read-out: Effective dose (-1° C.)
Procedure: The test is carried out on male mice (CD1 Charles Rivers) weighing 25 to 30 g, and without food for 6 hours.
The body temperature is noted using a thermocouple placed in the rectum to about 1.5 cm and connected to an electrical temperature recorder. […]
The degree of hypothermia is evaluated as the difference between the treated animals and the control animals and the dose necessary to reduce the body temperature by 1° C. is determined.
The duration of action of the products is determined by using doses capable of reducing the temperature by 1° to 1.2° C.

[4] = isolated guinea-pig ileum, contraction, Tyrode's solution at 37° C.
[5] = sc, sub-cutaneous route, dose necessary to reduce body temperature by 1° C.
[6] = oral route, dose necessary to reduce body temperature by 1° C.

For `CC(=O)OC1CN2CCC1CC2` (stereo not shown) [Aceclidine, HCl], which EC50 [1] is on record?
The EC50 was 105 nM.

And the ED50 at 3 h (Diarrheic activity; male CD1 mice, fasted 6 hours, oral, observed up to 180 minutes, read-out: ED50 (dose which causes diarrhoea in 50% of the animals))?
Its ED50 at 3 h is 4 mg/kg.

What about the LD50 at 168 h [2] of the same molecule?
Its LD50 at 168 h is 250 mg/kg.

What about the “duration of action: body temperature difference from controls” value ([3]; 2.50 mg/kg sub-cutaneous, 30 min) of the same molecule?
Its value is -1.0 °C.

What about the “duration of action: body temperature difference from controls” value ([3]; 2.50 mg/kg sub-cutaneous, 60 min) of the same molecule?
The value was -0.1 °C.

And the “duration of action: body temperature difference from controls” value ([3]; 2.50 mg/kg sub-cutaneous, 120 min)?
Its value is “+0.1 °C”.

What about the “duration of action: body temperature difference from controls” value ([3]; 2.50 mg/kg sub-cutaneous, 180 min) of the same molecule?
Its value is “+0.1 °C”.

What about the “duration of action: body temperature difference from controls” value ([3]; 7.50 mg/kg oral, 30 min) of the same molecule?
The value was -1.1 °C.

What about the “duration of action: body temperature difference from controls” value ([3]; 7.50 mg/kg oral, 60 min) of the same molecule?
Its value is -0.3 °C.

And the “duration of action: body temperature difference from controls” value ([3]; 7.50 mg/kg oral, 180 min)?
Its value is “+0.1 °C”.

And the ED (-1 C body temperature) ([3]; po)?
The ED (-1 C body temperature) was 6.4 mg/kg.

What about the ED (-1 C body temperature) ([3]; sc) of the same molecule?
Its ED (-1 C body temperature) is 2.1 mg/kg.

Which EC50 [1, 4] does the source give for `CON=CC1CN2CCC1CC2` (stereo not shown) [Example 1, 1-azabicyclo-[2,2,2]-octan-3-carboxaldehyde O-methyloxime] here?
Its EC50 is 50.1 nM.

What about the ED50 at 3 h (Diarrheic activity; po) of the same molecule?
Its ED50 at 3 h is 1.1 mg/kg.

And the LD50 at 168 h [2]?
Its LD50 at 168 h is 30 mg/kg.

And the “duration of action: body temperature difference from controls” value ([3]; 0.25 mg/kg oral, 30 min)?
The value was -1.1 °C.

What about the “duration of action: body temperature difference from controls” value ([3]; 0.25 mg/kg oral, 60 min) of the same molecule?
The value was -1.0 °C.

What about the “duration of action: body temperature difference from controls” value ([3]; 0.25 mg/kg sub-cutaneous, 30 min) of the same molecule?
Its value is -1.2 °C.

What about the “duration of action: body temperature difference from controls” value ([3]; 0.25 mg/kg sub-cutaneous, 60 min) of the same molecule?
Its value is -1.1 °C.

And the ED (-1 C body temperature) [3, 5]?
The ED (-1 C body temperature) was 0.18 mg/kg.

And the ED (-1 C body temperature) [3, 6]?
The ED (-1 C body temperature) was 0.19 mg/kg.

Which LD50 at 168 h [2] does the source give for `CCON=CC1CN2CCC1CC2` (stereo not shown) [Example 2, 1-azabicyclo-[2,2,2]-octan-3-carboxaldehyde O-ethyloxime] here?
Its LD50 at 168 h is 150 mg/kg.

For `C#CCON=CC1CN2CCC1CC2` (stereo not shown) [Example 3, 1-azabicyclo-[2,2,2]-octan-3-carboxaldehyde O-2-propynyloxime], which LD50 at 168 h [2] is on record?
The LD50 at 168 h was 40 mg/kg.

Which results are given for `CON=C(C)C1CN2CCC1CC2` (stereo not shown) [Example 4, (1-azabicyclo-[2,2,2]-octan-3-yl)-ethanone O-methyloxime hydrochloride]?
EC50 [1, 4]: 95.5 nM; ED50 at 3 h (Diarrheic activity; po): 3 mg/kg; LD50 at 168 h [2]: 75 mg/kg; ED (-1 C body temperature) [3, 5]: 0.33 mg/kg; ED (-1 C body temperature) [3, 6]: 0.33 mg/kg
